# Experiments:
# [1] = system: H292 cells (EGFR-positive NSCLC); experiment: Intracellular platinum accumulation in H292 cells (ICP-MS); type: cell-based, human; conditions: 0.4 μg/mL, 24 h
# Procedure: (§1) EGFR-negative H520 cells were used as negative control. […] The cell pellet was digested in 65% (v/v) nitric acid at 75° C. for 2 h. The Pt content was analyzed by ICP-MS. Cellular Pt levels were expressed in ng Pt/10^6 cells. To further check the targeting specificity of EHDDP nanoparticles in vitro, EGFR was knocked down by EGFR small interfering RNAs (siRNA). H292 cells were transfected with EGFR siRNA (sc-29301 from Santa Cruz Bio) (100 pmol) or scrambled siRNA (sc-37007 from Santa Cruz Bio) (100 pmol) as a nonspecific control according to the manufacturer's protocols. Briefly, in a 6-well tissue culture plate, 2×10^5 cells per well were seeded in 2 mL of antibiotic-free RPMI 1640 medium supplemented with 10% FBS and, on the following day, transfected with siRNAs at the final concentration of 100 pmol. […] Mouse anti-β-actin antibody (Trevigen, Gaithersburg, Md.) was used as a sample loading control. Immunostained protein bands were detected with an enhanced chemiluminescence kit (Thermo Scientific, Rockfield, Ill.). […] The data are shown as mean±SD (n=3). DDP-DNA adduct formation was measured using 1×10^7 cells per condition. […] In addition, the expression level of the phosphorylation of H2A.X was detected by Western Blot as described above using the Phospho-Histone H2A.X (Ser139) (20E3) rabbit mAb (Cell Signaling Technology, Inc.).
# [2] = system: H520 cells (EGFR-negative NSCLC); experiment: Intracellular platinum accumulation in H520 cells (ICP-MS); type: cell-based, human; conditions: 24 h
# Procedure: as §1
# H292 cells [3] = experiment: SRB cytotoxicity assay; type: cell-based, human; conditions: 96 h
# Procedure: H292 and H520 cells maintained in medium with 2% FBS were seeded in 96-well plates at a density of 5000 cells/well overnight prior to drug treatment. […] Cells were fixed for 1 h with 10% cold trichloroacetic acid. Plates were washed five times in water, air-dried, and then stained with 0.4% SRB for 10 min. […] Plates were read in a microplate reader by measuring absorbance at 492 nm. The percent survival was then calculated based upon the absorbance values relative to untreated samples. The experiment was repeated three times.
# H292 cells [4] = experiment: Pt-DNA adduct formation in vitro (ICP-MS of purified DNA); type: cell-based, human; conditions: 37° C., 24 h
# Procedure: as §1
# [5] = Concentration profile of Pt in mice peripheral blood; type: in vivo, nude mice; conditions: for Pt concentration in blood: Pt 2.5 mg/kg
# Procedure: The whole blood samples were dissolved in 65% (v/v) nitric acid at 75° C. for 2 h, and Pt concentration was measured by ICP-MS.
# [6] = Biodistribution of Pt in organs and tumor of H292 tumor-bearing mice; type: in vivo, nude mice
# Procedure: (§2) Blood, organs (liver, spleen, kidney, and lung), and tumor tissue were harvested, half of the organs were dissolved in 65% (v/v) nitric acid at 75° C. for 2 h, and Pt concentrations were measured by ICP-MS. The blood and other half of the organs were used to extract DNA, and the Pt concentration in DNA was quantified as described above.
# [7] = Pt-DNA adducts in kidney and tumor in vivo; design: species or system nude mice; conditions: single iv dose Pt 2.5 mg/kg
# Procedure: as §2
smiles,measurement,setting,value
"N.N.[Cl][Pt][Cl] [DDP, cis-diamminedichloroplatinum(II)]",intracellular Pt level,[1],2.49±0.39 ng Pt/10^6 cells
same,intracellular Pt accumulation,[2],3.38±0.42 ng Pt/10^6 cells
same,IC50 (Pt concentration),H292 cells [3],2.12 ± 0.20 mg/L
same,Pt level associated with cellular DNA (Pt-DNA adducts),H292 cells [4],19.68±4.35 pg Pt/μg DNA
same,Pt concentration in blood,[5]; 30 min after iv injection,1.17±0.12 ng/mg blood
same,Pt concentration in blood,[5]; 8 h after iv injection,0.36±0.09 ng/mg blood
same,time of elimination by the renal system,[5]; discussion statement,< 5 min
same,tumor Pt level,[6]; 10 min after iv injection,3.58±0.91 ng/mg dry tissue
same,Pt concentration in kidney,[6]; 10 min after systemic administration,35.25±5.70 ng/mg dry tissue
same,Pt concentration in kidney,[6]; 4 h,11.9±0.79 ng/mg dry tissue
same,accumulation of Pt in the liver,"[6]; 4 h, single iv dose Pt 2.5 mg/kg",7.71±1.61 ng/mg dry tissue
same,Pt concentration in kidney,[6]; 24 h,6.39±0.67 ng/mg dry tissue
same,tumor Pt level,[6]; 24 h after iv injection,1.48±0.52 ng/mg dry tissue
same,decrease of Pt concentration in the liver,[6]; 24 h compared with 4 h,20%
same,"Pt concentrations in the liver, spleen and kidney, comparison between treatments",[6]; 28 days after treatment,no differences
same,decrease of Pt accumulation in the liver,[6]; from 10 min to 4 h,42.5%
same,decrease of Pt accumulation in the spleen,[6]; from 10 min to 4 h,82.86%
same,decrease in Pt accumulation in the kidney,[6]; within 4 h,65.1%
same,Pt concentration in DNA purified from kidney,[7]; 4 h,71.78±9.02 pg/μg DNA
same,Pt-DNA adducts in NSCLC xenograft tumors,[7]; 4 h,92.21±8.96 pg/μg DNA
same,Pt concentration in DNA purified from kidney,[7]; 24 h,25.72±2.78 pg/μg DNA
same,Pt-DNA adducts in NSCLC xenograft tumors,[7]; 24 h,94.68±15.01 pg/μg DNA
